Test results published in patent publication US4559346A, “Certain N-octahydro-indolizinebenzamides and their use in treating psychosis, cardiac arrhythmia and hypertension” (Beecham Group p.l.c., priority 1982, dated 1985).

System: post-synaptic Dopamine (D.A.) receptors
Experiment: Inhibition of apomorphine induced climbing in the mouse
Format: in vivo
Conditions: male CDI mice, p.o., 1/2 hour post dosing, apomorphine 1 mg/kg s.c.; for ED50 (dose for 50% inhibition of apomorphine-induced climbing): 30 min; for ED50: Mus musculus, po, 0.5 h, read-out: ED50 (dose for 50% inhibition of apomorphine-induced climbing)
Description: Inhibition of apomorphine induced climbing in the mouse
The test is based on that described by Protais, P., Constantin, J. and Schwartz J. C.
When mice are given a dose of 1 mg/kg apomorphine and then placed in an enclosed environment, such as an inverted wire cage, they are seen to climb around the walls. This behavioural phenomenon is thought to be a consequence of the stimulation of post-synaptic Dopamine (D.A.) receptors in the nucleus accumbens. Inhibition of apomorphine induced climbing is therefore indicative of post-synaptic D.A. receptor blockade in the accumbens.
Groups of 10 male CDI mice, weighing 25-30 g were pretreated orally with either graded doses of the test compound or vehicle, at appropriate time intervals before the subcutaneous administration of a sub-maximal dose of apomorphine (1 mg/kg). Immediately after the apomorphine injection the mice were placed in wire `climbing cages` and each animal was scored for climbing behavour at 10 and 20 minutes post apomorphine as follows:
Four paws on cage floor=0
The total score was calculated for each group of mice and expressed as a percentage inhibition of climbing.
Total score for apomorphine control

| Molecule | ED50 (dose for 50% inhibition of apomorphine-induced climbing) [mg/kg p.o.] | ED50 [mg/kg] |
| --- | --- | --- |
| COc1cc(N)c(Cl)cc1C(=O)NC1CCN2CC(C)(c3ccccc3)CCC12 (racemic) [2 (c), (±) 4-Amino-5-chloro-2-methoxy-N-[7'β-[3'-methyl-3'-phenyl-1'-aza-5'αH-bicyclo[4,3,0]nonyl)]benzamide] | 0.48 | – |
| (±) 4-Amino-5-chloro-2-methoxy-N-(7'β-[3'-o-fluorophenyl-1'-aza-5'αH-bicyclo[4,3,0]nonyl)]benzamide [2 (d)] | 0.52 | – |
| COc1cc(N)c(Cl)cc1C(=O)N[C@H]1CCN2C[C@@H](c3ccc(F)cc3)C[C@H]2C1 (relative stereo) [2 (b), (±) 4-Amino-5-chloro-2-methoxy-N-[7'β-(3'β-p-fluorophenyl-1'-aza-5'αH-bicyclo[4,3,0]nonyl)]benzamide] | – | 0.195 |
| COc1cc(N)c(Cl)cc1C(=O)N[C@H]1CCN2C[C@@H](c3ccccc3)C[C@H]2C1 (relative stereo) [2 (a), (±) 4-Amino-5-chloro-2-methoxy-N-[7'β-(3'β-phenyl-1'-aza-5'αH-bicyclo[4,3,0]nonyl)]benzamide] | – | 0.235 |
